This assay relates to PD-1-overexpressing Jurkat cells. Kind of assay: Small molecule screen: IL2 secretion (AlphaLISA) from stimulated PD-1-overexpressing Jurkat cells. The assay is classed as cell-based, human. The note with it: 3.3 μM compound; for Zscore_1 / Zscore_2: IL2 level, α-CD3/α-CD28/α-PD-1 beads; for Zscore_1: replicate 1; for Zscore_2: replicate 2; for Zscore_AVG: average of replicate Z scores. The method in brief:
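Cells (100,000/well) with compound at 3.3 μM final, stimulated by α-CD3/α-CD28/α-PD-1 Dynabeads at an 8:1 bead:cell ratio. IL2 in supernatants measured by AlphaLISA. Hits scored ≥3 SD from the mean of DMSO-treated, α-PD-1-bead-stimulated controls.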
In general terms: Alpha assays give light when donor and acceptor beads are brought close together.

On to `O=c1cc(N2CCNCC2)oc2c(-c3ccccc3)cccc12` [LY 303511], for which the Zscore_1 was 1.21, the Zscore_2 is −0.8685 and the Zscore_AVG was 0.1705.
The compound `Nc1ncnc2c1c(-c1ccc(Oc3ccccc3)cc1)cn2C1CCCC1` [Lck Inhibitor] registered a Zscore_1 of −8.467, a Zscore_2 of −8.924 and a Zscore_AVG of −8.695.
With `N#C/C(=C(/N)Sc1ccc(N)cc1)c1ccccc1C(F)(F)F` [MEK 1/2 Inhibitor], the Zscore_1 was −4.769, the Zscore_2 was −6.395 and the Zscore_AVG was −5.582.
Regarding `O=C1C(Cl)=C(N2C(=O)CCC2=O)C(=O)c2ccccc21` [MEK Inhibitor II], the Zscore_1 is listed as −2.22, the Zscore_2 is recorded as −1.364 and the Zscore_AVG is given as −1.792.
The matching figures for `N#C/C(=C(/N)Sc1ccccc1N)c1cccc(C(O)c2ccncc2)c1` (stereo not drawn) [MEK Inhibitor I]: −4.599, −4.873 and −4.736.
`O=C(CCCc1ccc(-c2ccccc2F)cc1)Nc1ccc(O)cc1` [MK2a Inhibitor] displayed a Zscore_1 of −1.455, a Zscore_2 of −2.305 and a Zscore_AVG of −1.88.
The matching figures for `O=C1NCCc2[nH]c(-c3ccnc(-c4cnc5ccccc5c4)c3)cc21` [MK-2 Inhibitor III]: −4.419, −7.061 and −5.74.
The matching figures for `Cl.O=S(=O)(c1cccc2c(I)cccc12)N1CCCNCC1` [ML-7, Hydrochloride]: 2.906, 0.08811 and 1.497.
Taken in the same sequence, the figures for `Nc1ncnc2n[nH]c(Nc3ccc(F)cc3)c12` [MNK1 Inhibitor] were −2.022, −0.3911 and −1.206.
Turning to `CN1C(=O)C(Cc2c[nH]c3ccccc23)NC1=S` (stereo not drawn) [Necrostatin-1], the Zscore_1 is −1.566, the Zscore_2 turned out to be 1.447 and the Zscore_AVG is on record as −0.05934.
Taken in the same sequence, the figures for `CC[C@H](CO)Nc1nc(NCc2ccccc2O)c2ncn(C(C)C)c2n1` [Olomoucine II] were 0.3445, 2.103 and 1.224.
Turning to `COc1cccc(-c2cc(=O)c3ccccc3o2)c1N` [PD98059], the Zscore_1 is −1.781, the Zscore_2 is listed as −1.614 and the Zscore_AVG is reported as −1.698.
The compound `CNc1cc2c(Nc3cccc(Br)c3)ncnc2cn1` [PD 158780] had a Zscore_1 of 0.3787, a Zscore_2 of 0.8816 and a Zscore_AVG of 0.6302.
Consider `O=[N+]([O-])c1ccc(-c2nc(-c3ccc(F)cc3)c(-c3ccncc3)[nH]2)cc1` [PD 169316], for which the Zscore_1 was −0.1697, the Zscore_2 is reported as 0.08497 and the Zscore_AVG is recorded as −0.04235.
The matching figures for `CCC(=O)Nc1ccc2ncnc(Nc3cccc(Br)c3)c2c1` [PD 174265]: −0.1183, 0.5895 and 0.2356.
`COc1cc2nccc(Oc3ccc(NC(=S)NC(=O)c4ccccc4C)cc3)c2cc1OC` [PDGF RTK Inhibitor] came in with a Zscore_1 of −3.239, a Zscore_2 of −6.099 and a Zscore_AVG of −4.669.
On to `COc1cc2ncnc(N3CCN(C(=O)Nc4ccc(Oc5ccccc5)cc4)CC3)c2cc1OC` [PDGF Receptor Tyrosine Kinase Inhibitor III], for which the Zscore_1 came to 1.681, the Zscore_2 was 3.032 and the Zscore_AVG is 2.357.
Consider `CCCC(=O)Oc1ccc2[nH]c(C(=O)c3cc4ccccc4[nH]3)cc2c1` [PDGF Receptor Tyrosine Kinase Inhibitor II], for which the Zscore_1 is given as −0.7009, the Zscore_2 came to 0.7754 and the Zscore_AVG stood at 0.03721.
Taken in the same sequence, the figures for `COc1cc2c(cc1OC)-c1[nH]nc(Nc3cccc(F)c3)c1C2` [PDGF Receptor Tyrosine Kinase Inhibitor IV] were −0.8894, −1.508 and −1.199.
Taken in the same sequence, the figures for `O=C1NC(=O)/C(=C/c2ccc3nccnc3c2)S1` [PI 3-Kg Inhibitor] were 0.8957, 2.23 and 1.563.
The matching figures for `Oc1cccc(-c2nc(N3CCOCC3)c3sccc3n2)c1` [PI 3-Kα Inhibitor IV]: 1.287, 0.7223 and 1.005.
Take `Cc1ccc([N+](=O)[O-])cc1S(=O)(=O)N(C)/N=C/c1cnc2ccc(Br)cn12.Cl` [PI 3-Kα Inhibitor VIII]: the Zscore_1 is recorded as −7.658, the Zscore_2 is −10.33 and the Zscore_AVG is recorded as −8.993.
With `Cc1cc(C(C)Nc2ccccc2)c2nc(N3CCOCC3)cc(=O)n2c1` (stereo not drawn) [PI 3-Kβ Inhibitor VI, TGX-221], the Zscore_1 was 2.504, the Zscore_2 came out at 2.528 and the Zscore_AVG amounted to 2.516.
The compound `Oc1cccc(-c2nc(N3CCOCC3)c3oc4ncccc4c3n2)c1` [PI-103] had a Zscore_1 of −0.718, a Zscore_2 of 0.8433 and a Zscore_AVG of 0.06265.
`CCCOc1ccc(/C=C2/SC(=O)NC2=O)cc1` [PIM1/2 Kinase Inhibitor VI] gave a Zscore_1 of −0.7695, a Zscore_2 of −1.561 and a Zscore_AVG of −1.165.
`O=C1NC(=O)C(c2cn(CCCn3ccnc3)c3ccccc23)=C1Nc1ccccc1` [PKCb Inhibitor] came in with a Zscore_1 of −3.512, a Zscore_2 of −5.04 and a Zscore_AVG of −4.276.
`O=C1NC(=O)c2cc(Nc3ccc(F)cc3)c(Nc3ccc(F)cc3)cc21` [PKCbII/EGFR Inhibitor] came in with a Zscore_1 of −0.838, a Zscore_2 of 0.616 and a Zscore_AVG of −0.111.
Turning to `O=C1Nc2ccc(Cl)cc2/C1=C/c1cc(Cl)c(O)c(Cl)c1` [PKR Inhibitor, Negative Control], the Zscore_1 is on record as −1.427, the Zscore_2 is −0.4334 and the Zscore_AVG is listed as −0.9301.
Consider `O=C1Nc2ccc3ncsc3c2/C1=C/c1cnc[nH]1` [PKR Inhibitor], for which the Zscore_1 was −7.658, the Zscore_2 is on record as −8.086 and the Zscore_AVG is reported as −7.872.
With `CC(C)(C)n1nc(Cc2cccc3ccccc23)c2c(N)ncnc21` [PP1 Analog II, 1NM-PP1], the Zscore_1 is −0.9751, the Zscore_2 was determined as 0.08497 and the Zscore_AVG is reported as −0.4451.
Take `Nc1ncnc2c1cnn2-c1ccccc1` [PP3]: the Zscore_1 was found to be 0.2416, the Zscore_2 was 0.9081 and the Zscore_AVG was 0.5749.
The compound `N#Cc1cc([N+](=O)[O-])c2sc(C(N)=O)[n+]([O-])c2c1` [Polo-like Kinase Inhibitor II, BTO-1] yielded a Zscore_1 of −1.795, a Zscore_2 of −0.518 and a Zscore_AVG of −1.156.
Taken in the same sequence, the figures for `CC(C)[C@H](CO)Nc1nc(Nc2cccc(Cl)c2)c2ncn(C(C)C)c2n1` [Purvalanol A] were −3.126, 0.37 and −1.378.
The matching figures for `O=c1c(O)c(-c2ccc(O)c(O)c2)oc2cc(O)c(O)c(O)c12` [Quercetagetin]: −1.427, −1.66 and −1.543.
The matching figures for `C[C@@H](N)[C@H]1CC[C@H](C(=O)Nc2ccncc2)CC1` [ROCK Inhibitor, Y-27632]: −3.269, −4.375 and −3.822.
`CC(=O)O[C@@H]1[C@@H](OC(C)=O)[C@@H](O)[C@H](Oc2c(-c3ccc(O)cc3)oc3cc(O)cc(O)c3c2=O)O[C@H]1C` [RSK Inhibitor, SL0101] yielded a Zscore_1 of 1.689, a Zscore_2 of −0.3488 and a Zscore_AVG of 0.67.
With `CO[C@H]1C[C@@H]2CC[C@@H](C)[C@@](O)(O2)C(=O)C(=O)N2CCCC[C@H]2C(=O)O[C@H]([C@H](C)C[C@@H]2CC[C@@H](O)[C@H](OC)C2)CC(=O)[C@H](C)/C=C(\C)[C@@H](O)[C@@H](OC)C(=O)[C@H](C)C[C@H](C)/C=C/C=C/C=C/1C` [Rapamycin], the Zscore_1 was −1.883, the Zscore_2 is listed as −3.367 and the Zscore_AVG is given as −2.625.
Regarding `COc1ccc2nc3n[nH]c(C)c3c(NCCOCCO)c2c1` [Ras/Rac Transformation Blocker, SCH 51344], the Zscore_1 is −2.363, the Zscore_2 was −3.128 and the Zscore_AVG is given as −2.746.
`c1nc2nc(Nc3ccc(N4CCOCC4)cc3)nc(NC3CCCCC3)c2[nH]1` [Reversine] gave a Zscore_1 of −3.512, a Zscore_2 of −5.332 and a Zscore_AVG of −4.422.
`c1ccc2c(-c3ccncc3)c[nH]c2c1` [Rho Kinase Inhibitor III, Rockout]: the Zscore_1 is recorded as −0.1806, the Zscore_2 is recorded as −2.59 and the Zscore_AVG was −1.385.
Taken in the same sequence, the figures for `O=C(Nc1ccncc1)Nc1c(Cl)cc(Cl)cc1Cl` [Rho Kinase Inhibitor II] were −1.746, −1.88 and −1.813.
`Cc1cncc2cccc(S(=O)(=O)N3CCCN(C(=O)CN)C[C@@H]3C)c12` [Rho Kinase Inhibitor IV] had a Zscore_1 of −5.704, a Zscore_2 of −5.042 and a Zscore_AVG of −5.373.

For the origin of these results see patent US11865176B2, “Compositions and methods of modulating anti-tumor immunity” (Dana-Farber Cancer Institute, Inc., priority 2016, dated 2024).
